Measured values: ChEMBL document CHEMBL5321222, “N(14)-substituted evodiamine derivatives as dual topoisomerase 1/tubulin-Inhibiting anti-gastrointestinal tumor agents” (Eur J Med Chem, 2023)
The source made the active and inactive calls. The calls are words filed in the database; no cut-off is given here.

Key:
[1] = system: RKO; experiment: Induction of apoptosis in human RKO cells assessed as late apoptotic cells at 0.1 uM incubated for 24 hrs by propidium iodide and Annexin V/FITC staining based flow cytometry assay (reference value: 0.50%); assay type: functional
[2] = target: Tubulin (Homo sapiens) (UniProt P68371+Q9H4B7+P0DPH7+P68366+Q13509+Q71U36+P04350+Q3ZCM7+P07437+P68363+Q9BQE3+Q6PEY2+Q13885+Q9BVA1+Q9BUF5); experiment: Induction of microtubule disruption in human RKO cells assessed as atrophied nucleus at 50 to 200 nM incubated for 24 hrs by laser confocal microscopic analysis; assay type: cell-based; conditions: dose 50-200 nM
[3] = system: RKO; experiment: Induction of apoptosis in human RKO cells assessed as early apoptotic cells at 0.1 uM incubated for 24 hrs by propidium iodide and Annexin V/FITC staining based flow cytometry assay (reference value: 0.16%); assay type: functional
[4] = system: GES1; experiment: Antiproliferative activity against human GES1 cells assessed as reduction in cell viability incubated for 72 hrs by MTT assay; assay type: functional, cell-based; conditions: GES1, 72 h
[5] = system: RKO; experiment: Induction of morphological changes in human RKO cells assessed as cell deformation at 0.05 to 0.2 uM incubated for 24 hrs by Giemsa staining based micrscopic analysis; assay type: functional; conditions: dose 0.05-0.2 µM
[6] = system: RKO; experiment: Inhibition of colony formation in human RKO cells at 90 nM incubated for 7 days by crystal violet staining based assay; assay type: functional, cell-based; conditions: time 7.0 day
[7] = system: HGC-27; experiment: Antiproliferative activity against human HGC-27 cells assessed as reduction in cell viability incubated for 72 hrs by MTT assay; assay type: functional, cell-based; conditions: HGC-27, 72 h
[8] = system: RKO; experiment: Induction of morphological changes in human RKO cells assessed as cell shrinkage at 0.05 to 0.2 uM incubated for 24 hrs by Giemsa staining based micrscopic analysis; assay type: functional; conditions: dose 0.05-0.2 µM
[9] = system: RKO; experiment: Antiproliferative activity against human RKO cells assessed as reduction in cell viability incubated for 72 hrs by MTT assay; assay type: functional, cell-based
[10] = system: MGC-803; experiment: Inhibition of cell […] in human MGC-803 cells incubated for 24 hrs by scratch wound healing assay; assay type: functional, cell-based; conditions: dose 12.5-50 nM
[11] = system: MGC-803; experiment: Antiproliferative activity against human MGC-803 cells assessed as reduction in cell viability incubated for 72 hrs by MTT assay; assay type: functional, cell-based; conditions: MGC-803, 72 h
[12] = system: MGC-803; experiment: Induction of apoptosis in human MGC-803 cells assessed as early apoptotic cells at 0.2 uM incubated for 24 hrs by propidium iodide and Annexin V/FITC staining based flow cytometry assay (reference value: 1.85%); assay type: functional
[13] = target: T1, DNA topoisomerase 1 (Homo sapiens) (UniProt P11387); experiment: Inhibition of topoisomerase 1 (unknown origin) at 50 uM using PBR322 DNA as substrate incubated for 30 mins by agarose gel electrophoresis relative to control
T1 sequence (whole entry): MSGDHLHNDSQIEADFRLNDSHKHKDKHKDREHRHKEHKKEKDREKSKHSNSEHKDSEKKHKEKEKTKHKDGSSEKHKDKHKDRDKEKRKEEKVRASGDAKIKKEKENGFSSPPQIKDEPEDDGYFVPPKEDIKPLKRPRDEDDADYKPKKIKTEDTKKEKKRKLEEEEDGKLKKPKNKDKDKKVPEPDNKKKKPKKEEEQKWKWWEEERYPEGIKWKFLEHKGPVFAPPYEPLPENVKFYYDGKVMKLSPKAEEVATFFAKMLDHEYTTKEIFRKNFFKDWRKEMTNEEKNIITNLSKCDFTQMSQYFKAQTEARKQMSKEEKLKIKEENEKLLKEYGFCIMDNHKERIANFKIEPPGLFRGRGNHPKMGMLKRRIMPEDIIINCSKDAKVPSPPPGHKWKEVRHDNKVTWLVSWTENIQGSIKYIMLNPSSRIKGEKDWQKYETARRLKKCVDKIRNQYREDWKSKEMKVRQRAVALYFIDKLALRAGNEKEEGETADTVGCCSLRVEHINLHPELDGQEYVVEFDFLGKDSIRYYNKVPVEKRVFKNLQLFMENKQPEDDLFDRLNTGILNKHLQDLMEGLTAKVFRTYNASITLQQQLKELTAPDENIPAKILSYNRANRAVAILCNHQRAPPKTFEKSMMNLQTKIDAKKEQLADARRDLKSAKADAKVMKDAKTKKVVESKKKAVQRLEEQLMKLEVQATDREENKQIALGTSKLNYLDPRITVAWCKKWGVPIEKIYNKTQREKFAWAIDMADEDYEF

[14] = system: MGC-803; experiment: Induction of morphological changes in human MGC-803 cells assessed as formation of apoptotic bodies at 0.05 to 0.2 uM incubated for 24 hrs by Giemsa staining based micrscopic analysis; assay type: functional, cell-based; conditions: dose 0.05-0.2 µM
[15] = Induction of cell cycle arrest in human RKO cells assessed as accumulation of cells at G2/M phase at 0.05 uM incubated for 24 hrs by propidium iodide staining based flow cytometry analysis; assay type: functional
[16] = system: RKO; experiment: Induction of cell cycle arrest in human RKO cells assessed as accumulation of cells at G2/M phase at 0.05 to 0.2 uM incubated for 24 hrs by propidium iodide staining based flow cytometry analysis; assay type: functional; conditions: dose 0.05-0.2 µM

For `CCCN1c2ccccc2C(=O)N2CCc3c([nH]c4ccccc34)C21` (stereo unspecified), the Activity [1] was 33.41%, the Activity [2] was “Active” and the Activity [3] was 14.52%. For the same molecule, the IC50 [4] was 130 nM, the Activity [5] was “Active” and the inhibition [6] was “Active”. The IC50 [7] was 810 nM, the Activity [8] was “Active” and the IC50 [9] was 200 nM. The inhibition [10] was “Dose-Dependent Effect”, the IC50 [11] was 90 nM and the Activity [12] was 12.28%. The inhibition [13] was 58.3%, the Activity [14] was “Active” and the Activity [15] was 40.55%. The Activity [16] was “Active”.
